ChEMBL document CHEMBL3046132, “Design and synthesis of thienopyridines as novel templates for acetylcholinesterase inhibitors” (2013)

Test system: Rattus norvegicus
Assay: In vivo inhibition of AchE in Wistar albino Rattus norvegicus (rat) brain at 10 mg/kg, po after 30 min relative to untreated control
Type: functional
Conditions: 0.5 h

| Compound | inhibition in vivo at 10 mg/kg |
| --- | --- |
| Cc1sc2nc3c(c(NCCCNc4c5c(nc6sc(C)c(C)c46)CCCC5)c2c1C)CCCC3 | 25.1% |
| Cc1sc2nc3c(c(NCCCCNc4c5c(nc6sc(C)c(C)c46)CCCC5)c2c1C)CCCC3 | 41.5% |
| C(CCNc1c2c(nc3sc4c(c13)CCCC4)CCCC2)CNc1c2c(nc3sc4c(c13)CCCC4)CCCC2 | 35.7% |
| Cc1sc2nc3c(c(NCCCN4C(=O)c5ccccc5C4=O)c2c1C)CCCC3 | 46.2% |
| Cc1sc2nc3c(c(NCCCCN4C(=O)c5ccccc5C4=O)c2c1C)CCCC3 | 55.6% |
| O=C1c2ccccc2C(=O)N1CCCNc1c2c(nc3sc4c(c13)CCCC4)CCCC2 | 42.7% |
| O=C1c2ccccc2C(=O)N1CCCCNc1c2c(nc3sc4c(c13)CCCC4)CCCC2 | 29.8% |
| O=C1c2ccccc2C(=O)N1CCNCCCNc1c2c(nc3sc4c(c13)CCCC4)CCCC2 | 43.9% |
| O=C1c2ccccc2C(=O)N1CCNCCCCNc1c2c(nc3sc4c(c13)CCCC4)CCCC2 | 45% |
| Cc1sc2nc3c(c(NCCCCNC(=O)CCCCC4CCSS4)c2c1C)CCCC3 (stereo not drawn) | 42.9% |
| O=C(CCCCC1CCSS1)NCCCNc1c2c(nc3sc4c(c13)CCCC4)CCCC2 (stereo not drawn) | 56.7% |
| O=C(CCCCC1CCSS1)NCCCCNc1c2c(nc3sc4c(c13)CCCC4)CCCC2 (stereo not drawn) | 21.4% |
| Nc1c2c(nc3ccccc13)CCCC2 [TACRINE] | 54.9% |
